From US20030054185A1, “Biocidal controlled-release formulations” (CREAVIS GESELLSCHAFT F. TECHN.U.INNOVATION MBH, priority 2001, published 2003)

Tests used:
Pseudomonas aeruginosa = assay: test microbial suspension shaken with aqueous extract, number of microbes determined; format: cell-based; conditions: contact time of 4 hours, starting number 10^7, 2 mL of 24 h water extract (37° C.) in 20 mL suspension (solvent control: 0.5 mL neat)
Method: The supernatant liquor is then filtered through a 0.2 micrometer pore filter. 2 mL of this solution are shaken with 20 mL of a test microbial suspension of Pseudomonas aeruginosa. […] The solvent is removed at 35° C. over a period of 48 hours in a drying cabinet, so that a polymer film remains on the base of the glass beaker. This film is extracted for 24 hours with 200 mL of water heated to 37° C. 2 mL of this solution are shaken with 20 mL of a test microbial suspension of Pseudomonas aeruginosa. […] Over a period of 14 days, the film is extracted as described above, each time for 24 hours, with 200 mL of water heated to 37° C., and the water is then subjected to microbiological testing. All of the determinations show a fall of from 4 to 5 logarithmic levels in the number of microbes. […] The solvent is removed over a period of 48 hours at 35° C. in a drying cabinet, so that a polymer film remains on the base of the glass beaker. The film is then dried for 24 hours at 5 mbar at 50° C. in a vacuum drying cabinet. This film is extracted for 24 hours with 200 mL of water heated to 37° C. 2 mL of this solution are shaken with 20 mL of a test microbial suspension of Pseudomonas aeruginosa. […] The solvent is removed over a period of 48 hours at 35° C. in a drying cabinet so that a polymer film remains on the base of the glass beaker. […]

Staphylococcus aureus = assay: as above; format: cell-based; conditions: contact time of 4 hours, starting number 10^7, 2 mL of 24 h water extract (37° C.) in 20 mL suspension (solvent control: 0.5 mL neat)
Method: 2 mL of this solution are shaken with 20 mL of a test microbial suspension of Staphylococcus aureus. After a contact time of 4 hours, 1 mL of the test microbial suspension is removed, and the number of microbes in the test mixture is determined.
This film is extracted for 24 hours with 200 mL of water heated to 37° C. 2 mL of this solution are shaken with 20 mL of a test microbial suspension of Staphylococcus aureus. After a contact time of 4 hours, 1 mL of the test microbial suspension is removed, and the number of microbes in the test mixture is determined. […] Over a period of 14 days, the film is extracted as described above, each time for 24 hours, with 200 mL of water heated to 37° C., and the water is then subjected to microbiological testing.
This film is extracted for 24 hours with 200 mL of water heated to 37° C. 2 mL of this solution are shaken with 20 mL of a test microbial suspension of Staphylococcus aureus. After a contact time of 4 hours, 1 mL of the test microbial suspension is removed, and the number of microbes in the test mixture is determined.

SMILES	number of microbes in the test mixture (Pseudomonas aeruginosa)	number of microbes in the test mixture (Staphylococcus aureus)
C1CCCCC1 [cyclohexane]	10^7 microbes per mL	
CCO [ethanol]		10^7 microbes per mL
